Test results taken from patent US20090298752A1, “APLIDINE TREATMENT OF CANCERS” (PHARMA MAR, S.A., priority 1999, published 2009).
“Also recorded” adds a separate entry of the source.

Tests used:
[1] = Clinical pharmacokinetics across phase I schedules; assay type: in vivo, human; settings: plasma PK, initial results
Experimental: […] intravenous schedules are under phase I evaluation: weekly 24 h infusion, biweekly 24 h infusion and 5 consecutive days 1 h infusion every 3 weeks. APL blood concentrations are analysed by liquid chromatography-tandem mass spectrometry. […] An open 2-compartment model fits appropriately most profiles after 24 h infusion. For 1 h infusions a 3-compartment model provides a better fit in most cases. Obtained plasma levels are known to be active in vitro. Evaluation of additional patients, and a comparison of blood cells and plasma PK is ongoing.

[2] = system: VEGF; assay: VEGF secretion from MOLT-4 cells (ELISA); assay type: cell-based, human
Experimental: Cells were treated for 1 h with 20 nM aplidine. VEGF secreted in the medium was measured by ELISA at the end of treatment and after 6 and 24 hours incubation in drug-free medium.

[3] = system: MOLT-4; assay: apoptosis in leukaemia cell line; assay type: cell-based, human
[4] = Phase I, 1 h weekly infusion x3 q4wk: toxicity and pharmacokinetics; assay type: in vivo, human
[5] = system: Prostate PC-3; assay: sc hollow fibre (HF), prostate tumour cells, rat; assay type: in vivo; settings: 0.70 mg/kg, 0.7 mg/kg
Experimental: Different model systems were evaluated to provide the basis for further clinical work. Selective antitumour activities were seen against two histologically different solid tumours: human gastric and prostate carcinomas. Potent in vitro activity to primary gastric tumour specimens or Hs746T gastric tumour cells is evident with IC30 values of 146 and 450 pM, respectively. […] activities were evaluated in nude rodents using sc implanted tumour fragments or hollow fibres (HF) containing tumour cells.
Follow-up studies necessitated using rats for iv infusions. With this variation, a 24 hr iv infusion schedule produced similar activities against HF gastric (20%) and HF prostate (31%) tumour cells. Cytotoxicity was also found using a 5 day iv infusion schedule against HF prostate tumour cells (33%).

[6] = system: VEGF promoter; assay: VEGF promoter activity, luciferase/renilla reporter gene system; assay type: cell-based; settings: FIG. 13
[7] = system: gastric tumours; settings: 1.25 mg/kg; cited from earlier work
[8] = system: advanced solid tumours and lymphoma; assay: Phase I, 1 h weekly infusion x3 q4wk: antitumour activity; assay type: in vivo, human
Source text: Adult patients with advanced disease, PS<3, and appropriate organ function are considered eligible; patients receive aplidine wk×3/q^4 wks. 24 solid tumour patients have been entered: median (m) age 55 y, m ECOG=1, 15/24 patients treated with =>2 treatment cycles. Seven dose levels (DL) from 133 mcg/m^2/wk to 2700 mcg/m^2/wk have been assessed: 102 infusions are evaluable for toxicity (tox). […] At 2700 mcg/m^2/wk (4 pts), 1 had G3 hiperbilirrubinemia that has been considered to be dose limiting and therefore 2700 mcg/m^2/wk DL is being expanded. […] Plasma levels >1 ng/ml 24 hours after infusion are reachable form 1800 mcg/m^2/wk. […] Aplidine appears to be clinically feasible at pharmacologically appropriate dose levels.
Aplidine was administered as a 1 hour weekly×3 every four weeks

[9] = system: FLT-1 (VEGF-R1); assay: cDNA expression array, PCR, Western in MOLT-4 cells; assay type: cell-based, human; settings: for quantitative change in FLT-1 expression: MOLT-4, 1 h treatment
Experimental: (§1) The early changes in gene expression induced by aplidine in MOLT-4 cells were evaluated by using cDNA expression arrays (Atlas Human Cancer, Clontech). MOLT-4 cells were treated for 1 hour with concentrations of aplidine which inhibit the growth by 50% and total RNA was isolated at 0, 1, 6 and 24 hours after drug wash out. Filters were hybridised with equal amount of 32P labelled cDNA. Analysis of the results was carried out using ATLAS IMAGE 1.0 software. Changes in gene expression greater than 2 fold were taken as significant changes in RNA expression and subsequently confirmed by PCR.
as §1, with “In the present study we have evaluated the early” for “The early”, “cells” for “cells were evaluated”, “of aplidien” for “of aplidine”, “isolated t” for “isolated at”, “equal amounts” for “equal amount”, “PCR. […] Whether the down-regulation of flt-1 is involved in the cytotoxic and antitumour effect of aplidine is under investigation at the moment.” for “PCR.”
The human leukaemia cell line MOLT-4 was used for these experiments MOLT-4 cells were treated for 1 hour with 20 nM of aplidine. Total RNA was extracted at the end of treatment and 6 and 24 hours after recovery in drug-free medium.
5 μg of total RNA were retrotanscribed to cDNA in the presence of ^32P dATP. Equal amounts of radioactive probes were hybridised to Atlas Human Cancer Microarrays (Clontech). After washing, filter were exposed and the results analysed using the Atlas Image software. Only a gene expression difference greater than 2 fold between treated and untreated cells were taken into account. RT-PCR and northern analysis have been performed to confirm the changes in gene expression found with the microarrays.

[10] = biological target: T1, HIF-1 (Homo sapiens, UniProt P27540+Q16665); assay: gel retardation assay, transcription factor binding; assay type: biochemical
T1 construct: endogenous in cells; host or cells: nuclear extracts
Experimental: Nuclear extracts were incubated with different aplidine concentrations and labelled oligonucleotides for 60 min. Using gel retardation assay the binding of HIF-1 or AP-1 has been monitored.
Nuclear extracts obtained from cells treated with different aplidine concentrations were incubated with labelled oligonucleotides for 60 min. Using gel retardation assay the binding of HIF-1 has been monitored.

T1 sequence (Q16665 whole entry): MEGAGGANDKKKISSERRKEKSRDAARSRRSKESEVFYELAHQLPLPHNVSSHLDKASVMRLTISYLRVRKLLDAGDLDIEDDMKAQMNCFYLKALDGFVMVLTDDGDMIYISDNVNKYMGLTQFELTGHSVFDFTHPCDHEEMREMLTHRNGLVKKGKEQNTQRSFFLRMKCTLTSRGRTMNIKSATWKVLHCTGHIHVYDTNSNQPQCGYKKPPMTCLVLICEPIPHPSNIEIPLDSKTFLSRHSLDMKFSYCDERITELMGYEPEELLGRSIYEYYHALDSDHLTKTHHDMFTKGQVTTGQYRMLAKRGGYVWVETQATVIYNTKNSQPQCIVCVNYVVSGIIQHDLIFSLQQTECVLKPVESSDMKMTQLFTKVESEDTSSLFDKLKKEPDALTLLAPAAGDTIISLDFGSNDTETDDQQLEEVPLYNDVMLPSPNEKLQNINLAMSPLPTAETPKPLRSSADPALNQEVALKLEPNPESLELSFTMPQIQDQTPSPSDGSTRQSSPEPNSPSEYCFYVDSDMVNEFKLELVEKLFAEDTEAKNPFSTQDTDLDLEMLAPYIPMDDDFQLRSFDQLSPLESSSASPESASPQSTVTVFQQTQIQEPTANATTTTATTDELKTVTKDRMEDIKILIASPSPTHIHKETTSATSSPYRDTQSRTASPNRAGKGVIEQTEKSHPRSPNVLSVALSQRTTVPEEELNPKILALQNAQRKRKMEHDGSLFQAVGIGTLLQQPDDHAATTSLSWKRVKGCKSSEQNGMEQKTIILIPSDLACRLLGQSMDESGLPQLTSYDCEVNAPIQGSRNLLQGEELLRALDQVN
T1 sequence (P27540 whole entry): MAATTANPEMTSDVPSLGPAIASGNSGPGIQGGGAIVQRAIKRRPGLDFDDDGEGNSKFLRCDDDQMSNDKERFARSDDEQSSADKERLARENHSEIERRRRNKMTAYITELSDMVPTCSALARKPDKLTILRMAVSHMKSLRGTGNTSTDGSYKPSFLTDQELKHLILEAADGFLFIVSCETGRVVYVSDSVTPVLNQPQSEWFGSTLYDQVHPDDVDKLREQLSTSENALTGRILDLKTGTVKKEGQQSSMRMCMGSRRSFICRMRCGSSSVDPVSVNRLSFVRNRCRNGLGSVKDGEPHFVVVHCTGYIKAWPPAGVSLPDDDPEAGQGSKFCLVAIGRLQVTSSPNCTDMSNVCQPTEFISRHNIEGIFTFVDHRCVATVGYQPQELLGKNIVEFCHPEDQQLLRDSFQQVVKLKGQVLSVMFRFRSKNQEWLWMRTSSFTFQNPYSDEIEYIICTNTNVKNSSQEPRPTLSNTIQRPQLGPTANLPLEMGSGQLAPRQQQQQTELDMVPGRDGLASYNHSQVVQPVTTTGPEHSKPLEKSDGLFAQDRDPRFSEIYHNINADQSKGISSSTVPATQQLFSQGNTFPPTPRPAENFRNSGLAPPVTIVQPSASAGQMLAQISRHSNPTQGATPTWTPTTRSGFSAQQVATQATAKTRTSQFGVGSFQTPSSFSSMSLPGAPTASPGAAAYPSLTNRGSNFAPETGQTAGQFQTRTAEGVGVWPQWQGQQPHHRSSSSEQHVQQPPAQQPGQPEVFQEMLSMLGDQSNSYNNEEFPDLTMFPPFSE

In the case of aplidine, the elimination half lives [1] is reported as 10 to 24 h, the volume of distribution [1] is reported as greater than 200 L/m^2 and the “intracellular VEGF” value [2] is reported as “increased intracellular accumulation of VEGF”. For the same substance, the “VEGF secretion, in words” value ([2]; 1 h with 20 nM aplidine) was “strong reduction of VEGF secretion; also recorded: severely inhibit production; also recorded: Blocks VEGF Secretion”, the “concentration at which block of VEGF secretion is already observable” value ([2]; concentration-dependent) was 5 nm and the apoptosis [3] was “strong apoptosis”. The “Alk. Phos. G3 (worst toxicity per patient)” value ([4]; 2700 mcg/m^2/wk x3, 8 patients, footnote DLT) was “(1)^(2)”, the “Transaminitis G3 (worst toxicity per patient)” value ([4]; 2700 mcg/m^2/wk x3, 8 patients, one with Hepatitis C, 2 reversible by day 8, 1 DLT) was 4 and the “Myalgia G2 (worst toxicity per patient)” value ([4]; 3600 mcg/m^2/wk x3, 2 patients) was 1. The “Activity (% T/C.)” value ([5]; 24 hr.iv inf.) was 31 % T/C, the “Activity (% T/C.)” value ([5]; 5 day, iv inf) was 33 % T/C and the “promoter activity of VEGF, in words” value [6] was “does not affect the promoter activity of VEGF”. The T/C [7] was 14%, the “response, Pat #16, gastric adenocarcinoma resistant to FAM” value ([8]; 1200 μg/m^2 weekly) was “Slight improvement in the lymph node masses” and the “activity in gastric cancer” value ([8]; 1 patient at 1200 mcg/m^2) was “Early hints of activity”. The “response, advanced renal cancer resistant to VBL-IFN” value ([8]; 2700 mcg/m^2/wk DL) was “ongoing objective response”, the “response, Pat #23, kidney carcinoma with pulmonary nodules” value ([8]; after 2 infusions at 2700 μg/m^2 weekly) was “Partial remission in lung nodules” and the “response, Pat #29, kidney carcinoma” value ([8]; after 3 infusion) was “Clinical improvement”. The “expression of VEGF-RI/flt-1 gene, in words” value ([9]; MOLT-4, 20 nM 1 h, at the end of treatment) was “decreased”, the “levels of flt-1, in words” value ([9]; MOLT-4, 20 nM 1 h, by 6 and 24 hours) was “further decreased” and the “quantitative change in FLT-1 expression” value ([9]; 1 Hour) was −1.5 fold. The “quantitative change in FLT-1 expression” value ([9]; 6 Hours) was −5.0 fold, the “quantitative change in FLT-1 expression” value ([9]; 24 Hours) was −3.4 fold and the “expression of VEGF-R1 (flt-1), in words” value ([9]; MOLT-4, RNA level by PCR, protein level by Western blotting) was “downregulated; also recorded: inhibits expression; also recorded: marked time-dependent reduction; also recorded: decrease in flt-1 mRNA”. For the same substance, the “binding of HIF-1 to consensus DNA sequence” value ([10]; nuclear extracts from cells treated with aplidine) was “does not block the binding” and the “binding of HIF-1 to consensus DNA sequence” value ([10]; nuclear extracts incubated with aplidine, 60 min) was “does not block the binding; also recorded: did not change the ability”.
